For the experiment, the system named is replicon replication in VeroE6/Rep #3 cells. The experiment is classed as cell-based, SARS-CoV-2. To be noted: 72 hours.

As to `CC(C)C(=O)OC[C@H]1O[C@@H](n2ccc(NO)nc2=O)[C@H](O)[C@@H]1O` [EIDD-2801, molnupiravir], the “effectiveness rate = (Replicon replication level)/(Cell survival rate)” value is given as “about 0.2” and the “luciferase activity (index of the replicon replication level) compared with DMSO negative control” value is “significantly decreased”.

(Values after patent US20220372448A1, “CELL LINE AND PRODUCING METHOD THEREOF” (University of Yamanashi, priority 2021, published 2022).)
